Reference: patent publication US20240100001A1, “DENATONIUM SALT FOR USE IN PREVENTING, PREVENTING PROGRESSION AND TREATING FATTY LIVER DISEASES” (AARDVARK THERAPEUTICS INC., priority 2021, published 2024)

How the values were obtained:
[1] = tested on: AMLN-diet induced NASH mice; format: in vivo
Description: This example provides the results obtained from a second in vivo mouse model of fatty liver disease treatment to investigate the therapeutic effect of DA on the treatment of NASH versus positive control semaglutide (a GLP-1 agonist marketed drug for lowering HbA1c). The differences in this study, from the preventive model in Example 1, were that a higher dose of DA (75 mg/kg) was used versus 30 mg/kg, dosing was twice daily (BID versus QD in the Example 1 study), a positive control semaglutide was used, a different mouse strain (B6 mice) was used, and the animals were already adults (23 weeks old in Example 2 versus 4 weeks old in Example 1) when the study began because the animals were already fed an AMLN diet for 17 weeks prior to the study being initiated. The study dose began at 75 mg/kg BID.
The study included 3 groups of 10 mice each, (A) vehicle control with distilled water by gavage BID, (B) DA by gavage BID, and (C) semaglutide […] sc QD. Body weights and changes were measured 3× per week. Serum metabolic markers (blood glucose, blood insulin, HbA1c, HDL, LDL triglycerides and bile acids) were measured at beginning of dosing (baseline) and end of study. At the end of the study, histopathology of liver samples and serum levels of inflammatory biomarkers (IL-6, TNFα, CK-18 and TGF-β) were evaluated. Histopathology was performed blindly with a scoring scale according to NAFLD Activity Score and Fibrosis Score according to Table 4.

[2] = 23.1 mg/kg BID DA; cited from earlier work
[3] = tested on: AMLN diet-induced NASH mice; test: Example 1: one-year DA dosing of AMLN diet-induced NASH mice (prevention study); format: in vivo
Description: This example provides the results of a 52 week study of lower dose DA (30 mg/kg per day QD by gavage) in mice where NASH conditions were induced by diet. The data for an animal-induced NASH of such a long duration (48-52 weeks) can be interpreted to support methods for preventing fatty liver diseases, including NASH, and methods of slowing progression of fatty liver diseases, including NASH. Male C57BL/6 mice (4 weeks old at study start) were maintained on a high-fat “Western diet” (AMLN diet) (DIO-NASH) (D09100301, Research Diet, USA) (40% fat (18% trans-fat), 40% carbohydrates (20% fructose) and 2% cholesterol, 40 kcal % fat, 20 kcal % fructose, and 2% cholesterol) following arrival, inducing non-alcoholic steatohepatitis (NASH). Following acclimation, Groups 1 and 2 (n=22 each) were dosed by intragastric oral gavage (PO) with (respectively) vehicle (distilled water) or denatonium acetate (DA) at 30 mg/kg. Doses were administered once daily (QD) for a full year (through Day 366) at dose volumes of 1 mL/kg. Body weights and clinical observations were monitored throughout the study. Blood was collected from fasted animals at baseline (Day −1) and regularly during the study (Weeks 4, 12, 24, and 48), processed to serum or plasma, and evaluated for metabolic parameters [glucose, insulin, hemoglobin A1c (HbA1c), and glucagon-like peptides 1 and 2 (GLP-1 and -2)], selected serum chemistry parameters [Ala aminotransferase (ALT), Asp aminotransferase (AST), albumin (ALB), and total bile acids (BA)], and multiple cytokines (32 total). After 52 weeks of QD dosing, fasted animals were bled and euthanized, and livers were collected and weighed. Terminal serum samples were assessed for low- and high-density cholesterol (LDL and HDL, respectively) and triglycerides (TGA); liver was assessed for total cholesterol (TC), TGA, and free fatty acids (FFA).
Male C57BL/6 mice (n=44) were purchased from Taconic Biosciences, Inc. (Rensselaer, NY), as 4-week-old animals. Following arrival, animals were weighed using an electronic balance (Ohaus SCOUT® PRO, Parsippany, NJ), given a clinical examination to ensure that the mice were in good condition, and group-housed (up to 4 per cage). The animals were maintained in HEPA-filtered static cages using SaniChip bedding 7090A (Harlan Teklad, Hayward, CA). Animal room controls were set to maintain temperature and relative humidity at 22° C.±4° C. and 50% 20%, respectively. Housing rooms were on a 12:12 light/dark cycle. Animals were acclimated on site for at least 3 days prior to entry onto the study. Following arrival and throughout the study, mice were provided with ad libitum access to water (via water bottles) and (except as noted for fasting) to a high-fat “Western diet” (AMLN diet, No. D09100301; Research Diets, New Brunswick, NJ) containing 40 kcal % fat, 20 kcal % fructose, and 2% cholesterol.
DA was formulated at 30 mg/mL in DW. Solid DA was weighed and added to the appropriate volume of DW; the solution was mixed well and inspected visually to ensure that there was no precipitate and to verify that the test article was completely solubilized. The DA dosing solution was prepared freshly each week and stored refrigerated at 4° C. between use in daily dose administrations. On Day −1 (i.e., one day before the start of dosing); and on Weeks 4, 12, 24, and 48 (i.e., after one, 3, 6, and 12 months of dosing), blood and fecal samples were collected from fasted animals. • Fecal samples (4 pellets per cage of 3-4 mice) were collected directly collected from the floor of each cage, divided into two aliquots, and stored at −80° C. for future microbiota and microbiome analysis. Results of those analyses are not included in this report. • Blood (100 μL/animal) was collected from each animal via the submandibular route. All blood samples were assessed for blood glucose levels and then processed to both serum and plasma. […]

[4] = DA 75 then 50 mg/kg BID, 12 weeks
[5] = 30 mg/kg PO QD, one year (48 weeks in Table 2), blinded histopathologic review
[6] = 30 mg/kg PO QD, only at Week 24
[7] = after one year of QD dosing, 30 mg/kg
[8] = after one year of daily dosing, 30 mg/kg

## CC(=O)[O-].CC[N+](CC)(CC(=O)Nc1c(C)cccc1C)Cc1ccccc1 [DA, denatonium acetate]
[1]; [4]
  body weight: remarkable effect
  body weight change: remarkable effect
  liver weight vs vehicle: significantly decreased
  liver/body weight ratio vs vehicle: significantly decreased
[1]; blinded histopathologic review, DA 75 then 50 mg/kg BID, 12 weeks
  NAFLD Activity Score: significantly improved
[1]; end of the study
  ALT levels vs vehicle control: significantly decreased
  AST levels vs vehicle control: significantly decreased
  CK-18 levels vs vehicle control: significantly decreased
  high density lipoproteins (HDL): significantly decreased
  low density lipoproteins (LDL): significantly decreased
  triglycerides (TG): significantly decreased
[2]
  weight gain: significant reduction
[3]; 30 mg/kg PO QD
  levels of the other (n=24) assessed cytokines vs vehicle: Significant treatment-related differences were not seen
[3]; 30 mg/kg PO QD, n=22, Weeks 12 and 49, unclear if test article related
  animals found dead during the study: two
[3]; [5]
  fibrosis on histopathology: improved/abrogated
  steatosis on histopathology: significantly improved
[3]; 30 mg/kg PO QD, one year, 1.52 vs. 0.58, p<0.0001
  total fibrosis score: 0.58
[3]; 30 mg/kg PO QD, Day 4
  relative body weights vs vehicle: lower
[3]; 30 mg/kg PO QD, Week 4 only
  IP-10 blood level vs vehicle: Statistically significant attenuation
  MIP-1B blood level vs vehicle: Statistically significant attenuation
[3]; 30 mg/kg PO QD, Week 12 only
  IL-13 blood level vs vehicle: Statistically significant attenuation
[3]; 30 mg/kg PO QD, Week 24 only
  MIP-1a blood level vs vehicle: Statistically significant attenuation
  Serum BA levels vs vehicle: significantly attenuated
  fasting blood glucose levels vs vehicle: significantly lower
[3]; 30 mg/kg PO QD, Week 48
  GLP-2 levels vs vehicle: did not differ significantly
[3]; 30 mg/kg PO QD, Week 48 only
  IL-6 blood level vs vehicle: Statistically significant attenuation
  IL-9 blood level vs vehicle: Statistically significant attenuation
  KC blood level vs vehicle: Statistically significant attenuation
[3]; 30 mg/kg PO QD, Weeks 4 and 12, not subsequently
  insulin levels vs vehicle: significantly elevated
[3]; 30 mg/kg PO QD, Weeks 4 and 48 only
  MIG blood level vs vehicle: Statistically significant attenuation
[3]; 30 mg/kg PO QD, Weeks 12 and 48, not Week 24
  HbA1c levels vs vehicle: significantly attenuated
[3]; 30 mg/kg PO QD, Weeks 24 and 48, not earlier
  Serum ALT activity levels vs vehicle: significantly attenuated
[3]; 30 mg/kg PO QD, any assessed time point
  Serum ALB levels vs vehicle: did not differ significantly
[3]; 30 mg/kg PO QD, during the first 5 months (both groups)
  body weight increase from baseline: ~150%
[3]; 30 mg/kg PO QD, during the study except Day 4 relative
  body weights (absolute or relative) vs vehicle: did not differ in a statistically significant manner
[3]; 30 mg/kg PO QD, during the year-long study (both groups)
  body weights mean increase from baseline: approximately 200%
[3]; [6]
  GLP-1 levels vs vehicle: significantly attenuated
  Serum AST activity levels vs vehicle: significantly attenuated
[3]; 30 mg/kg, PO, QD for 48 weeks
  Lowered serum levels of ALT: ALT (−43%),
  Lowered serum levels of AST: AST (−9.5%),
  Lowered serum levels of HbA1c: HbA1c (−6.7%),
  Lowered serum levels of bile acid: acid (−16.2%)
  Lowered serum levels of fasting glucose: glucose (−9%),
  decreased liver weight of animals: (by 10%)
  serum levels of GLP-1 (Table 2 summary): Increased
  serum levels of GLP-2 (Table 2 summary): Increased
  serum levels of inflammatory markers: Lowered serum
[3]; [7]
  absolute liver weight at necropsy vs vehicle: not absolute liver weight was attenuated
  relative (body weight-normalized) liver weight at necropsy vs vehicle: attenuated
[3]; [8]
  Liver TGA levels vs vehicle: significantly attenuated
  Serum TGA levels vs vehicle: significantly attenuated
  liver FFA levels vs vehicle: not those of TC or FFA, were significantly attenuated
  liver TC levels vs vehicle: not those of TC or FFA, were significantly attenuated
  serum HDL levels vs vehicle: not those of HDL or LDL, were significantly attenuated
  serum LDL levels vs vehicle: not those of HDL or LDL, were significantly attenuated
[3]; mouse, in vivo, po, 30 mg/kg
  adverse effects on survival, body weight, or clinical signs: did not appear to have adverse effects
